The target of this test is T1, GSK3β (Homo sapiens, UniProt P49841).
T1 construct: gene GSK3B; His-tagged recombinant GSK3β from sf9 insect cells
Nature of the test: SPR (ProteOn XPR36, immobilized recombinant GSK3β); supported by competition with FITC-Axin peptide (AFF assay). Type of test: binding. The source says:
SPR (ProteOn XPR36, immobilized recombinant GSK3β); supported by competition with FITC-Axin peptide (AFF assay) on GSK3β | wild type Axin peptide or niclosamide directly binds to GSK3, the equilibrium dissociation constant yielding a KD

pKd: −log10 of the molar value.

T1 sequence (P49841 whole entry): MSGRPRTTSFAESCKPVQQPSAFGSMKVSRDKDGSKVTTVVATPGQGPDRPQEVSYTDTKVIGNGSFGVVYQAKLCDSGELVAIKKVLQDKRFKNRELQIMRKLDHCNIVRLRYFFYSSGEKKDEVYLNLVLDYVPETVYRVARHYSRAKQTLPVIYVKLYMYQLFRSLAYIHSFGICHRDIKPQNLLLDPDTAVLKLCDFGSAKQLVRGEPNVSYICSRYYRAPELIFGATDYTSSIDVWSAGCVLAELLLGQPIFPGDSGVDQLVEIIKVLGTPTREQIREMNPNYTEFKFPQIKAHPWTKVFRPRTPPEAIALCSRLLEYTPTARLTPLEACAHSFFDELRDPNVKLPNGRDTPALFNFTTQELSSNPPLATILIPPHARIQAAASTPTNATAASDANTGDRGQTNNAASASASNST

Consider `O=C(Nc1ccc([N+](=O)[O-])cc1Cl)c1cc(Cl)ccc1O` [Niclosamide], for which the negative-log Kd (pKd) is 4.46.
